Consider 24 compounds from patent publication US9617289B2, “RSV antiviral compounds” (JANSSEN R&D IRELAND, priority 2012, dated 2017).

One series concerns rgRSV224 virus. As to the kind of experiment: Antiviral activity: inhibition of rgRSV224 (GFP-expressing RSV) replication in HeLa cells. The series is classed as cell-based, respiratory syncytial virus. As to conditions: for EC50: human respiratory syncytial virus, HeLa, 72 h; for pEC50: rgRSV224 (MOI=0.02) in HeLa cells, GFP expression three days post-virus exposure. In outline:
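HeLa cells infected with GFP-expressing rgRSV224 at MOI 0.02 alongside 4-fold compound dilutions in duplicate (0.5% DMSO). Incubated 3 days at 37 °C; EC50 taken as 50% inhibition of GFP expression by laser microscopy. CC50 measured in parallel uninfected cells by ATP content after 3 days; SI = CC50/EC50.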

The mark [1] stands for this setting: read-out: pEC50, rgRSV224 (MOI=0.02) in HeLa cells, GFP expression three days post-virus exposure (converted).
Where [2] appears, read: read-out: RSV-wt_pEC50, rgRSV224 (MOI=0.02) in HeLa cells, GFP expression three days post-virus exposure.

Where two headings read alike, the source gives them in different places.

`CS(=O)(=O)CCCn1c(CN2C(=O)C3(CN(C(=O)C(F)(F)F)C3)c3ccccc32)nc2cc(Cl)ccc21` [Compound 31, 1-({5-chloro-1-[3-(methylsulfonyl)propyl]-1H-benzimidazol-2-yl}methyl)-1-(trifluoroacetyl)spiro-[azetidine-3,3′-indol]-2′(1′H)-one]: the melting point is 249.58 °C. The EC50 in the series on rgRSV224 virus (setting [1]) was 3.16 nM.
As to `CC(=O)N1CCC2(CC1)C(=O)N(Cc1nc3cc(Cl)ccc3n1CCCS(C)(=O)=O)c1ccccc12` [Compound 32, 1′-acetyl-1-({5-chloro-1-[3-(methylsulfonyl)propyl]-1H-benzimidazol-2-yl}methyl)spiro[indole-3,4′-piperidin]-2(1H)-one], the melting point came to 247.98 °C. Also, the EC50 with rgRSV224 virus (setting [1]) is 0.631 nM.
Compound `CS(=O)(=O)CCCn1c(CN2C(=O)C3(CCN(S(=O)(=O)c4ccc(F)cc4)CC3)c3ccccc32)nc2cc(Cl)ccc21` [Compound 34, 1-({5-chloro-1-[3-(methylsulfonyl)propyl]-1H-benzimidazol-2-yl}methyl)-1′-[(4-fluorophenyl)-sulfonyl]spiro[indole-3,4′-piperidin]-2(1H)-one] returned a melting point of 183.97 °C. Also, the EC50 in the series on rgRSV224 virus (setting [1]) was 1.26 nM.
Taken in the same sequence, the figures for `CS(=O)(=O)CCCn1c(CN2C(=O)C3(CCN(S(=O)(=O)C4CC4)CC3)c3ccccc32)nc2cc(Cl)ccc21` [Compound 35, 1-({5-chloro-1-[3-(methylsulfonyl)propyl]-1H-benzimidazol-2-yl}methyl)-1′-(cyclopropylsulfonyl)-spiro[indole-3,4′-piperidin]-2(1H)-one] were 194.85 °C and 0.794 nM.
For `COc1ccc(S(=O)(=O)N2CCC3(CC2)C(=O)N(Cc2nc4cc(Cl)ccc4n2CCCS(C)(=O)=O)c2ccccc23)cc1` [Compound 36, 1-({5-chloro-1-[3-(methylsulfonyl)propyl]-1H-benzimidazol-2-yl}methyl)-1′-[(4-methoxyphenyl)-sulfonyl]spiro[indole-3,4′-piperidin]-2(1H)-one], in that order: 237.33 °C and 0.251 nM.
For `COC(=O)N1CCC2(CC1)C(=O)N(Cc1cc3cc(Cl)ccc3n1CCCS(C)(=O)=O)c1cnccc12` [Compound 55], in that order: 234.28 °C and 0.0501 nM.
In turn, `CC(=O)N1CCC2(CC1)C(=O)N(Cc1cc3cc(Cl)ccc3n1CCCS(C)(=O)=O)c1cnccc12` [Compound 56, 1-acetyl-1′-({5-chloro-1-[3-(methylsulfonyl)propyl]-1H-indol-2-yl}methyl)spiro[piperidine-4,3′-pyrrolo[2,3-c]pyridin]-2′(1′H)-one] yielded a melting point of 258.32 °C. For the same compound, the EC50 in the series with rgRSV224 virus (setting [1]) is 0.316 nM.
For `CC(=O)N1CC2(C1)C(=O)N(Cc1cc3cc(Cl)ccc3n1CCCC#N)c1ccccc12` [Compound 62, 4-{2-[(1-acetyl-2′-oxospiro[azetidine-3,3′-indol]-1′(2′H)-yl)-methyl]-5-chloro-1H-indol-l-yl}butanenitrile], in that order: 195.25 °C and 1 nM.
Turning to `CC(C)(C)OC(=O)N1CC2(C1)C(=O)N(Cc1nc3cc(Cl)ccc3n1CCCC#N)c1ccccc12` [Compound 70, tert-butyl 1′-((5-chloro-1-(3-cyanopropyl)-1H-benzo[d]-imidazol-2-yl)methyl)-2′-oxospiro[azetidine-3,3′-indoline]-1-carboxylate], the melting point was determined as 144.1 °C. Also, in the series on rgRSV224 virus (setting [1]), the EC50 is less than 0.158 nM.
For `O=C1N(Cc2nc3cc(Cl)ccc3n2CCCC(F)(F)F)c2cc(F)ccc2C12CCOCC2` [Compound 71, 1-((5-chloro-1-(4,4,4-trifluorobutyl)-1H-benzo[d]imidazol-2-yl)methyl)-6-fluoro-2′,3′,5′,6′-tetrahydrospiro[indoline-3,4′-pyran]-2-one], in that order: 172.7 °C and 3.16 nM.
The compound `CC(=O)N1CC2(C1)C(=O)N(Cc1nc3cc(Cl)ccc3n1CCCS(C)(=O)=O)c1ccccc12` [Compound 72, 1-acetyl-1′-((5-chloro-1-(3-(methylsulfonyl)propyl)-1H-benzo[d]imidazol-2-yl)methyl)spiro[azetidine-3,3′-indolin]-2′-one] gave a melting point of 226.51 °C. This compound also registered a pEC50 with rgRSV224 virus of 9.6.
The compound `CC(C)(O)C(=O)N1CC2(C1)C(=O)N(Cc1cc3cc(Cl)ccc3n1CCCC#N)c1ccccc12` [Compound 73, 4-(5-chloro-2-((1-(2-hydroxy-2-methylpropanoyl)-2′-oxospiro[azetidine-3,3′-indolin]-1′-yl)methyl)-1H-indol-1-yl)butanenitrile] showed a melting point of 89.86 °C. Further, the EC50 with rgRSV224 virus (setting [1]) was 0.501 nM.
Compound `O=C1N(Cc2nc3nc(Cl)ccc3n2CCCC(F)(F)F)c2cnccc2C12CCOCC2` [Compound 75, 1′-((5-chloro-1-(4,4,4-trifluorobutyl)-1H-imidazo[4,5-b]-pyridin-2-yl)methyl)-2,3,5,6-tetrahydrospiro[pyran-4,3′-pyrrolo[2,3-c]pyridin]-2′(1′H)-one] came in with a melting point of 188.67 °C. Moreover, the pEC50 in the series with rgRSV224 virus came to 8.3.
Turning to `N#CCCCn1c(CN2C(=O)C3(CCN(C(=O)OC4COC4)CC3)c3ccncc32)cc2cc(Cl)ccc21` [Compound 80, oxetan-3-yl 1′-((5-chloro-1-(3-cyanopropyl)-1H-indol-2-yl)-methyl)-2′-oxo-1′,2′-dihydro[spiropiperidine-4,3′-pyrrolo-[2,3-c]pyridine]-1-carboxylate], the melting point came out at 208.24 °C. In addition, the EC50 in the series with rgRSV224 virus (setting [1]) is less than 0.158 nM.
Taken in the same sequence, the figures for `N#CCCCn1c(CN2C(=O)C3(CCN(S(=O)(=O)C4CC4)CC3)c3ccncc32)cc2cc(Cl)ccc21` [Compound 81, 4-(5-chloro-2-((1-(cyclopropylsulfonyl)-2′-oxospiro-[piperidine-4,3′-pyrrolo[2,3-c]pyridin]-1′(2′H)-yl)methyl)-1H-indol-1-yl)butanenitrile] were 93.04 °C and less than 0.158 nM.
In the case of `N#CCCCn1c(CN2C(=O)C3(CCN(C(=O)OC4COC4)CC3)c3ccncc32)nc2cc(Cl)ccc21` [Compound 82, oxetan-3-yl 1′-((5-chloro-1-(3-cyanopropyl)-1H-benzo[d]-imidazol-2-yl)methyl)-2′-oxo-1′,2′-dihydrospiro[piperidine-4,3′-pyrrolo[2,3-c]pyridine]-1-carboxylate], the melting point came out at 203.41 °C. Besides, in the series with rgRSV224 virus (setting [1]), the EC50 was less than 0.158 nM.
For `CC(=O)N1CCC2(CC1)C(=O)N(Cc1nc3cc(Cl)ccc3n1CCCC#N)c1cnccc12` [Compound 83, 4-(2-((1-acetyl-2′-oxospiro[piperidine-4,3′-pyrrolo[2,3-c]-pyridin]-1′(2′H)-yl)methyl)-5-chloro-1H-benzo[d]imidazol-1-yl)butanenitrile], in that order: 223.53 °C and less than 0.158 nM.
The compound `CS(=O)(=O)CCCn1c(CN2C(=O)C3(CCN(S(=O)(=O)C4CC4)CC3)c3ccncc32)nc2cc(Cl)ccc21` [Compound 85, 1′-((5-chloro-1-(3-(methylsulfonyl)propyl)-1H-benzo[d]-imidazol-2-yl)methyl)-1-(cyclopropylsulfonyl)spiro-[piperidine-4,3′-pyrrolo[2,3-c]pyridin]-2′(1′H)-one] gave a melting point of 150.42 °C. In the series with rgRSV224 virus (setting [1]), the EC50 was less than 0.158 nM.
In turn, `CS(=O)(=O)CCCn1c(CN2C(=O)C3(CCN(C(=O)C4CC4)CC3)c3ccncc32)nc2cc(Cl)ccc21` [Compound 90, 1′-({5-Chloro-1-[3-(methylsulfonyl)propyl]-1H-benzimidazol-2-yl}methyl)-1-(cyclopropylcarbonyl)spiro[piperidine-4,3′-pyrrolo[2,3-c]pyridin]-2′(1′H)-one] gave a melting point of 208.64 °C. The EC50 in the series on rgRSV224 virus (setting [2]) was 0.0468 nM.
Turning to `CS(=O)(=O)N1CC2(C1)C(=O)N(Cc1nc3cc(Cl)ccc3n1CCCC#N)c1ccccc12` [Compound 94, 4-(5-Chloro-2-{[1-(methylsulfonyl)-2′-oxospiro[azetidine-3,3′-indol]-1′(2′H)-yl]methyl}-1H-benzimidazol-1-yl)-butanenitrile], the melting point was 214.11 °C. Further, in the series on rgRSV224 virus (setting [2]), the EC50 was 0.129 nM.
For `CS(=O)(=O)CCCn1c(CN2C(=O)C3(CCN(S(=O)(=O)c4cccs4)CC3)c3ccccc32)nc2cc(Cl)ccc21` [Compound 102], in that order: 233.06 °C and 1.45 nM.
`CNC(=O)OC1CC2(C1)C(=O)N(Cc1nc3cc(Cl)ccc3n1CCCS(C)(=O)=O)c1ccccc12` [Compound 104, (1R,3R)-1′-((5-chloro-1-(3-(methylsulfonyl)propyl)-1H-benzo[d]imidazol-2-yl)methyl)-2′-oxospiro[cyclobutane-1,3′-indoline]-3-yl methylcarbamate] returned a melting point of 204.17 °C. In the series on rgRSV224 virus (setting [2]), the EC50 is 0.0229 nM.
Taken in the same sequence, the figures for `CS(=O)(=O)N1CCC2(CC1)C(=O)N(Cc1cc3cc(Cl)ccc3n1CCCC#N)c1cnccc12` [Compound 105, 4-(5-Chloro-2-{[1-(methylsulfonyl)-2′-oxospiro[piperidine-4,3′-pyrrolo[2,3-c]pyridin]-1′(2′H)-yl]methyl}-1H-indol-1-yl)butanenitrile] were 145.3 °C and 0.0832 nM.
For `CC(=O)NS(=O)(=O)N1CCC2(CC1)C(=O)N(Cc1cc3cc(Cl)ccc3n1CCCCF)c1cnccc12` [Compound 114, N-[(1′-{[5-Chloro-1-(4-fluorobutyl)-1H-indol-2-yl]methyl}-2′-oxo-1′,2′-dihydro-1H-spiro[piperidine-4,3′-pyrrolo[2,3-c]-pyridin]-1-yl)sulfonyl]acetamide], in that order: 236.92 °C and 0.427 nM.

For orientation: melting point means the temperature, or range, at which the solid turns liquid. A word on the pEC50: it is −log10 of the EC50, conventionally taken in molar units.
